Measurements: patent US20080161367A1, “Insecticidal Mixtures” (BASF Aktiengesellschaft, priority 2005, published 2008)

What was measured:
[1] = tested on: Colorado potato beetle larvae (Leptinotarsa decemlineata); test: Foliar insecticidal activity on eggplant, Colorado potato beetle feeding damage; type: in vivo; conditions: foliar spray on eggplant at 0.05 ppm each; 2nd instar larvae; evaluated 3 days later, relative to untreated controls
Protocol: (§1) Each mixture partner has been evaluated separately at the same rates as used in the mixtures. Synergism was determined by comparing the expected biological effect on plant health or on disease control from the mixture based on the individual effects from the separate partners to the biological effect observed with the mixture. Abbott's formula has be used to make this comparison.
The foliage of eggplant plants (Solanum melongena, variety Black Beauty) at the 4th to 5th true-leaf stage was treated with a mixture of commercially available fipronil SC formulation (REGENT® 4 SC, 479 g a.i./L-) at 0.05 ppm with commercially available clothianidin formulation (PONCHO® 600, 600 g a.i./L) at 0.05 ppm. In addition, there was a treatment with each mixture partner at its respective solo rate. Treatment was by spraying the leaves to near run-off. The carrier for all treatments was water. Two leaves on each of three plants were sprayed per treatment. […] Insect feeding damage to the foliage was evaluated 3 days later. Percent reductions in insect feeding damage were calculated based on the untreated controls.
The expected reduction in feeding damage for the mixture was calculated based on the percent reductions observed when each mixture partner was applied solo at the rate it was applied in the mixture using Abbott's formula as follows: […]

[2] = tested on: Western corn rootworm larvae (Diabrotica virgifera virgifera); test: Seed treatment of field corn seeds, Western corn rootworm larval mortality; type: in vivo; conditions: corn seed treatment at the rate printed in the row (fipronil 0.005, clothianidin 0.05 g a.i./100 kg seed); 2nd instar larvae; mortality 1 day after infestation, adjusted for untreated controls
Protocol: as §1
Field corn seeds (Zea mays) were treated with a mixture of commercially available fipronil SC formulation (REGENT® 4 SC—479 g a.i./L) at rates of 0.005 g ai/100 kg seed with commercially available clothianidin formulation (PONCHO® 600—600 g a.i./L) at 0.05 g ai/100 kg seed. In addition, there was a treatment with each mixture partner at its respective solo rate. The carrier for all treatments was water. The respective formulation(s) and water were mixed in a 20 ml vial. Then 25 seeds were added, and the vial was vortexed. After treatment, seeds were allowed to dry. […] Petri plates were incubated at 26° C., and insect mortality was evaluated 1 day later. Percent mortalities were calculated adjusting for any mortality in the untreated controls.
The expected percent mortality for the mixture was calculated based on the percent mortalities observed when each mixture partner was applied solo at the rate it was applied in the mixture using Abbott's formula as follows: […]

Structure (SMILES) | Actual Mixture Response [% Reduction in Insect Feeding Injury] [1] [%] | Actual Mixture Response [% Larval Mortality] [2] [%]
CN/C(=N\[N+](=O)[O-])NCc1cnc(Cl)s1 [Clothianidin, clothianidin] | 21 | 14
N#Cc1nn(-c2c(Cl)cc(C(F)(F)F)cc2Cl)c(N)c1[S+]([O-])C(F)(F)F (stereo not shown) [Fipronil, fipronil] | 0 | 0
